Assay results as given in ChEMBL document CHEMBL1201862, “PubChem BioAssay data set” (2004).
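The compound was tested at five concentrations on cells cultured in 96-well plates, with a 48-hour exposure period. Abbreviation: GI50, concentration required for 50% inhibition of growth.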 The source made the active and inactive calls. Cut-off read from the data, not from the text of the source: active = GI50 up to about 1.1 µM and inactive = higher.

Key:
Assay in all cases: NCI-60 cell line screen, 48 h
786-0 = system: 786-0
A498 = system: A498
A549 = system: A549
ACHN = system: ACHN
BT-549 = system: BT-549
CAKI-1 = system: CAKI-1
CCRF-CEM = system: CCRF-CEM
COLO 205 = system: COLO 205
DU-145 = system: DU-145
HCC 2998 = system: HCC 2998
HCT-116 = system: HCT-116
HCT-15 = system: HCT-15
HL-60 = system: HL-60
HOP-62 = system: HOP-62
HOP-92 = system: HOP-92
HT-29 = system: HT-29
Hs-578T = system: Hs-578T
IGROV-1 = system: IGROV-1
KM12 = system: KM12
LOX IMVI = system: LOX IMVI
M14 = system: M14
MDA-MB-231 = system: MDA-MB-231
MDA-MB-435 = system: MDA-MB-435
MDA-N = system: MDA-N
MOLT-4 = system: MOLT-4
NCI-H226 = system: NCI-H226
NCI-H23 = system: NCI-H23
NCI-H460 = system: NCI-H460
NCI/ADR-RES = system: NCI/ADR-RES
OVCAR-3 = system: OVCAR-3
OVCAR-4 = system: OVCAR-4
OVCAR-5 = system: OVCAR-5
PC-3 = system: PC-3
RPMI-8226 = system: RPMI-8226
SF-268 = system: SF-268
SK-MEL-28 = system: SK-MEL-28
SK-MEL-2 = system: SK-MEL-2
SK-MEL-5 = system: SK-MEL-5
SK-OV-3 = system: SK-OV-3
SN12C = system: SN12C
SNB-19 = system: SNB-19
SNB-75 = system: SNB-75
SW-620 = system: SW-620
T47D = system: T47D
U-251 = system: U-251
UACC-257 = system: UACC-257
UACC-62 = system: UACC-62
EKVX = system: EKVX
K562 = system: K562
MCF7 = system: MCF7
Malme-3M = system: Malme-3M
NCI-H522 = system: NCI-H522
OVCAR-8 = system: OVCAR-8
RXF 393 = system: RXF 393
SF-295 = system: SF-295
SF-539 = system: SF-539
SR = system: SR
TK-10 = system: TK-10
UO-31 = system: UO-31

N#CC(C#N)=c1c(=O)c2c3ccccc3cc3cccc1c32
GI50 (786-0): 35.2 µM (inactive) | GI50 (A498): > 100 µM (inactive) | GI50 (A549): > 100 µM (inactive) | GI50 (ACHN): 37.1 µM (inactive) | GI50 (BT-549): > 100 µM (inactive) | GI50 (CAKI-1): > 100 µM (inactive) | GI50 (CCRF-CEM): > 100 µM (inactive) | GI50 (COLO 205): > 100 µM (inactive) | GI50 (DU-145): > 100 µM (inactive) | GI50 (HCC 2998): > 100 µM (inactive) | GI50 (HCT-116): 72.6 µM (inactive) | GI50 (HCT-15): > 100 µM | GI50 (HL-60): 68.1 µM (inactive) | GI50 (HOP-62): 29 µM (inactive) | GI50 (HOP-92): > 100 µM (inactive) | GI50 (HT-29): > 100 µM (inactive) | GI50 (Hs-578T): 31.5 µM (inactive) | GI50 (IGROV-1): 40.6 µM (inactive) | GI50 (KM12): 58.7 µM (inactive) | GI50 (LOX IMVI): > 100 µM (inactive) | GI50 (M14): > 100 µM (inactive) | GI50 (MDA-MB-231): > 100 µM (inactive) | GI50 (MDA-MB-435): > 100 µM (inactive) | GI50 (MDA-N): > 100 µM (inactive) | GI50 (MOLT-4): 70.3 µM (inactive) | GI50 (NCI-H226): > 100 µM (inactive) | GI50 (NCI-H23): > 100 µM (inactive) | GI50 (NCI-H460): > 100 µM (inactive) | GI50 (NCI/ADR-RES): > 100 µM (inactive) | GI50 (OVCAR-3): > 100 µM (inactive) | GI50 (OVCAR-4): > 100 µM (inactive) | GI50 (OVCAR-5): > 100 µM (inactive) | GI50 (PC-3): 55.7 µM (inactive) | GI50 (RPMI-8226): > 100 µM (inactive) | GI50 (SF-268): > 100 µM (inactive) | GI50 (SK-MEL-28): 89.9 µM (inactive) | GI50 (SK-MEL-2): 92.3 µM (inactive) | GI50 (SK-MEL-5): > 100 µM (inactive) | GI50 (SK-OV-3): > 100 µM (inactive) | GI50 (SN12C): > 100 µM (inactive) | GI50 (SNB-19): > 100 µM (inactive) | GI50 (SNB-75): > 100 µM (inactive) | GI50 (SW-620): > 100 µM (inactive) | GI50 (T47D): > 100 µM (inactive) | GI50 (U-251): > 100 µM (inactive) | GI50 (UACC-257): > 100 µM (inactive) | GI50 (UACC-62): > 100 µM (inactive)

COC(=O)C(=O)C(C(=O)C(N)=O)c1nc2ccc(C(=O)c3ccccc3)cc2nc1O (stereo unspecified)
GI50 (786-0): > 100 µM (inactive) | GI50 (A498): > 100 µM (inactive) | GI50 (A549): > 100 µM (inactive) | GI50 (ACHN): 63 µM (inactive) | GI50 (BT-549): > 100 µM (inactive) | GI50 (CAKI-1): 56 µM (inactive) | GI50 (CCRF-CEM): > 100 µM (inactive) | GI50 (EKVX): > 100 µM (inactive) | GI50 (HCC 2998): > 100 µM (inactive) | GI50 (HCT-116): > 100 µM (inactive) | GI50 (HCT-15): 55.7 µM | GI50 (HL-60): 84.7 µM (inactive) | GI50 (HOP-62): > 100 µM (inactive) | GI50 (HOP-92): > 100 µM (inactive) | GI50 (HT-29): > 100 µM (inactive) | GI50 (Hs-578T): 80.5 µM (inactive) | GI50 (IGROV-1): 83.2 µM (inactive) | GI50 (K562): 34.2 µM (inactive) | GI50 (KM12): 46.9 µM (inactive) | GI50 (LOX IMVI): > 100 µM (inactive) | GI50 (M14): > 100 µM (inactive) | GI50 (MCF7): 63.8 µM (inactive) | GI50 (MDA-MB-231): > 100 µM (inactive) | GI50 (MDA-MB-435): 65 µM (inactive) | GI50 (MDA-N): > 100 µM (inactive) | GI50 (MOLT-4): 54.3 µM (inactive) | GI50 (Malme-3M): > 100 µM (inactive) | GI50 (NCI-H226): > 100 µM (inactive) | GI50 (NCI-H23): > 10 µM (inactive) | GI50 (NCI-H460): 74.5 µM (inactive) | GI50 (NCI-H522): 40.7 µM (inactive) | GI50 (NCI/ADR-RES): 40.4 µM (inactive) | GI50 (OVCAR-3): > 100 µM (inactive) | GI50 (OVCAR-4): 28.6 µM (inactive) | GI50 (OVCAR-5): > 100 µM (inactive) | GI50 (OVCAR-8): 53.8 µM (inactive) | GI50 (PC-3): 75.2 µM (inactive) | GI50 (RPMI-8226): 62.5 µM (inactive) | GI50 (RXF 393): 69.7 µM (inactive) | GI50 (SF-268): > 100 µM (inactive) | GI50 (SF-295): 79.8 µM (inactive) | GI50 (SF-539): 87.1 µM (inactive) | GI50 (SK-MEL-28): > 100 µM (inactive) | GI50 (SK-MEL-2): > 100 µM (inactive) | GI50 (SK-MEL-5): 45.7 µM (inactive) | GI50 (SK-OV-3): > 100 µM (inactive) | GI50 (SN12C): > 100 µM (inactive) | GI50 (SNB-19): > 10 µM (inactive) | GI50 (SNB-75): 69 µM (inactive) | GI50 (SR): 27.7 µM (inactive) | GI50 (SW-620): > 100 µM (inactive) | GI50 (T47D): 70.5 µM (inactive) | GI50 (TK-10): > 100 µM (inactive) | GI50 (U-251): > 100 µM (inactive) | GI50 (UACC-257): > 100 µM (inactive) | GI50 (UACC-62): > 100 µM (inactive)

NS(=O)(=O)c1nnc(NS(=O)(=O)c2ccc(Cl)cc2)s1
GI50 (786-0): > 100 µM (inactive) | GI50 (A498): > 100 µM (inactive) | GI50 (A549): > 100 µM (inactive) | GI50 (ACHN): > 100 µM (inactive) | GI50 (BT-549): > 100 µM (inactive) | GI50 (CAKI-1): > 100 µM (inactive) | GI50 (COLO 205): > 100 µM (inactive) | GI50 (DU-145): > 100 µM (inactive) | GI50 (EKVX): > 100 µM (inactive) | GI50 (HCC 2998): > 100 µM (inactive) | GI50 (HCT-116): > 100 µM (inactive) | GI50 (HCT-15): > 100 µM | GI50 (HOP-62): > 100 µM (inactive) | GI50 (HOP-92): > 100 µM (inactive) | GI50 (HT-29): > 100 µM (inactive) | GI50 (Hs-578T): > 100 µM (inactive) | GI50 (K562): > 100 µM (inactive) | GI50 (KM12): > 100 µM (inactive) | GI50 (LOX IMVI): > 100 µM (inactive) | GI50 (M14): > 100 µM (inactive) | GI50 (MCF7): > 100 µM (inactive) | GI50 (MDA-MB-231): > 100 µM (inactive) | GI50 (MDA-MB-435): > 100 µM (inactive) | GI50 (MDA-N): > 100 µM (inactive) | GI50 (MOLT-4): > 100 µM (inactive) | GI50 (Malme-3M): > 100 µM (inactive) | GI50 (NCI-H226): > 100 µM (inactive) | GI50 (NCI-H23): > 100 µM (inactive) | GI50 (NCI-H460): > 100 µM (inactive) | GI50 (NCI-H522): > 100 µM (inactive) | GI50 (NCI/ADR-RES): > 100 µM (inactive) | GI50 (OVCAR-3): > 100 µM (inactive) | GI50 (OVCAR-4): > 100 µM (inactive) | GI50 (OVCAR-5): > 100 µM (inactive) | GI50 (OVCAR-8): > 100 µM (inactive) | GI50 (RPMI-8226): > 100 µM (inactive) | GI50 (RXF 393): > 100 µM (inactive) | GI50 (SF-268): > 100 µM (inactive) | GI50 (SF-295): > 100 µM (inactive) | GI50 (SK-MEL-28): > 100 µM (inactive) | GI50 (SK-MEL-2): > 100 µM (inactive) | GI50 (SK-MEL-5): > 100 µM (inactive) | GI50 (SK-OV-3): > 100 µM (inactive) | GI50 (SN12C): > 100 µM (inactive) | GI50 (SNB-19): > 100 µM (inactive) | GI50 (SR): > 100 µM (inactive) | GI50 (SW-620): > 100 µM (inactive) | GI50 (T47D): > 100 µM (inactive) | GI50 (TK-10): > 100 µM (inactive) | GI50 (U-251): > 100 µM (inactive) | GI50 (UACC-257): > 100 µM (inactive) | GI50 (UACC-62): > 100 µM (inactive) | GI50 (UO-31): > 100 µM (inactive)
